Laboratory results from the SangsterLogP compilation.

| Compound | logP |
| --- | --- |
| C#CCOC1=Nc2ccc(OC(=O)N3CCCC3)cc2OC1 | 2.93 |
| C#CCOc1cc(OC(=O)N(CC)CC)c(Cl)cc1Cl | 3.95 |
| O=[N+]([O-])c1ccc(Oc2ccc(C(F)(F)F)cc2Cl)cc1Oc1ccoc1 | 4.33 |
| COC(=O)c1cc(Oc2ccc(C(F)(F)F)cc2Cl)ccc1[N+](=O)[O-] | 4.26 |
| COC(=O)c1cc(Oc2cc(C(F)(F)F)ccc2Cl)ccc1[N+](=O)[O-] | 4.21 |
| C=COC(=O)[C@@H](C)Oc1cc(Oc2ccc(C(F)(F)F)cc2Cl)ccc1[N+](=O)[O-] | 4.54 |
| COC(=O)c1cc(Oc2ccc(C(F)(F)F)cc2Cl)ccc1Cl | 5.04 |
| O=C(O)COC(=O)c1cc(Oc2ccc(C(F)(F)F)cc2Cl)ccc1[N+](=O)[O-] | 4.27 |
| O=C(Oc1ccc(Cl)cc1Cl)N1CCCC1 | 3.94 |
| O=[N+]([O-])c1ccc(Oc2ccc(C(F)(F)F)cc2Cl)cc1 | 4.54 |
| Nc1c([N+](=O)[O-])ccc(Oc2ccccc2)c1Cl | 4.04 |
| COC(=O)CC(C)(N=O)c1cc(Oc2ccc(C(F)(F)F)cc2Cl)ccc1[N+](=O)[O-] (stereo not drawn) | 4.54 |
| Cc1cccc(Oc2ccc([N+](=O)[O-])cc2)c1 | 4.4 |
| COC(=O)c1cc(S(=O)(=O)c2ccc(C(F)(F)F)cc2Cl)ccc1[N+](=O)[O-] | 3.57 |
| COC(=O)c1cc(S(=O)c2ccc(C(F)(F)F)cc2Cl)ccc1[N+](=O)[O-] (stereo not drawn) | 3.65 |
| O=[N+]([O-])c1ccc(Oc2ccc(Cl)cc2Cl)cc1 | 4.64 |
| CCOC(=O)C(C)OC(=O)c1cc(Oc2ccc(C(F)(F)F)cc2Cl)ccc1[N+](=O)[O-] (stereo not drawn) | 4.81 |

The remaining lines, values ahead:

| logP | Compound |
| --- | --- |
| 4.67 | CC(C)OC(=O)c1cc(OC(=O)N2CCCC2)c(Cl)cc1Cl |
| 2.98 | O=C(Oc1cc(O)c(Cl)cc1Cl)N1CCCC1 |
| 3.57 | C#CCOc1cc(OC(=O)N2CCC(F)(F)CC2)c(Cl)cc1Cl |
| 3.82 | C#CCOc1cc(OC(=O)N2CCCC2)c(Cl)cc1Cl |
| 4.25 | C#CCOc1cc(OC(=O)N2CCCCC2)c(Cl)cc1Cl |
| 4.2 | CC(C)OC(=O)c1cc(OC(=O)N2CCCC2)c(F)cc1Cl |
| 3.38 | O=C(Oc1ccc(Cl)cc1)N1CCCC1 |
| 3.13 | O=C(Oc1ccccc1Cl)N1CCCC1 |
| 3.42 | C#CCOc1cc(OC(=O)N2CCC(F)(F)C2)c(Cl)cc1Cl |
| 2.73 | O=C(Oc1ccccc1)N1CCCC1 |
| 3.95 | COC(=O)c1cc(OC(=O)N2CCCC2)c(Cl)cc1Cl |
